The values that follow come from PubChem BioAssay (NCI).

Holding throughout (assay): inhibition of tumour cell growth, NCI panel, 48 h
Assay [1] concerns MOLT-4 leukemia.
For assay [2], the system named is HT29 colon.
Assay [3] concerns SF-539 CNS.
Assay [4] concerns MALME-3M melanoma.
The test system of assay [5] is SK-OV-3 ovarian.
Assay [6] concerns EKVX NSCLC.
In assay [7] the test system is HOP-62 NSCLC.
Assay [8] concerns SR leukemia.
Assay [9] has as its system KM12 colon.
Assay [10] relates to MCF7 breast.

Molecules are shown by their SMILES.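 48-hour exposure; five concentrations; linearly interpolated endpoints. GI50: concentration for 50% inhibition of growth. TGI: concentration producing complete growth inhibition.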 Where only a bound is given, the exact number is not on record here.

In the case of `Clc1ccc2c(c1)-c1ccccc1C1=NCCN12`, the GI50 is 1.01 µM in assay [1]; 1.17 µM in [2]; 3 µM in assay [3]; 1.77 µM in assay [4]; 2.68 µM in assay [5]; 2.25 µM in assay [6]. The GI50 in assay [7] was 1.98 µM; in [8] it was 1.55 µM; in [9], 2.56 µM; in assay [10], 2.18 µM. In addition, the TGI was found to be 3.11 µM in assay [1]; 3.6 µM in assay [2]; 10.4 µM in assay [3]; 4.17 µM in assay [4]; 8.64 µM in [5]; 9.09 µM in assay [6]. In addition, the TGI in assay [7] is 6.02 µM; in assay [8], 4.13 µM; in assay [9], 7.79 µM; in [10] it was 8.58 µM.
For `COc1cc(-c2oc3c(OC)c(O)c(OC)c(O)c3c(=O)c2OC)ccc1O`, the TGI is above 100 µM in assay [1]; above 100 µM in assay [2]; above 100 µM in assay [3]; above 100 µM in [4]; 54.6 µM in assay [5]; above 100 µM in [6]. Also, the TGI in [7] was 61.4 µM; in [8] it was above 100 µM; in [9], above 100 µM; in assay [10], above 100 µM.
In the case of `OC(CNc1ccnc2cc(Cl)ccc12)CNC1CCCCC1` (centres undefined), the GI50 was 9.15 µM in assay [1]; 3.26 µM in assay [2]; 1.76 µM in [3]; 1.89 µM in assay [4]; 10.5 µM in assay [5]; 6.15 µM in [6]. The GI50 in assay [7] is 12.3 µM; in assay [8], 1.95 µM; in [9], 13 µM; in assay [10], 7.36 µM. For the same compound, the TGI stood at 31.9 µM in [1]; 12.2 µM in assay [2]; 3.38 µM in [3]; 3.8 µM in assay [4]; 32.8 µM in [5]; 27 µM in assay [6]. For the same compound, the TGI turned out to be 26.3 µM in [7], 5.13 µM in [8], 27.3 µM in assay [9] and 21.9 µM in assay [10].
In the case of `COc1cc(/C=C/C(=O)c2c(C)n([O-])c3ccc(Cl)cc3[n+]2=O)cc(OC)c1OC`, the GI50 in assay [1] was above 100 µM; in assay [2] it was above 100 µM; in assay [3], 25.4 µM; in assay [4], 14.1 µM; in assay [5] it was 34.6 µM; in [6], 25.2 µM. For the same compound, the GI50 in assay [7] is 60.2 µM; in [8], 8.4 µM; in assay [9] it was above 100 µM; in [10], 57 µM. Besides, the TGI in [1] was above 100 µM; in [2], above 100 µM; in assay [3] it was 52.6 µM; in assay [4] it was 35.3 µM; in [5], above 100 µM; in [6] it was above 100 µM. The TGI in assay [7], in assay [8], in assay [9] and in assay [10] was above 100 µM each time.
Take `O=Cc1ccc(O)c2ncccc12`: the TGI in assay [1] is above 38.8 µM; in [2], 34.7 µM; in [3], 19.3 µM; in assay [4], 30.4 µM; in assay [5], 39.3 µM; in [6] it was 23.9 µM. Moreover, the TGI is 45.3 µM in assay [7], above 31.8 µM in assay [8], 40.5 µM in assay [9] and 8.11 µM in [10]. The GI50 in assay [2] is 7.46 µM; in assay [3] it was 3.33 µM; in [4] it was 3.62 µM; in assay [5] it was 10.8 µM; in assay [6], 3.01 µM; in assay [7] it was 5.59 µM. Further, the GI50 in assay [8] was 0.858 µM; in assay [9], 5.65 µM; in assay [10] it was 2.45 µM.
Consider `COCCNC(=O)c1ccc(-c2nc3ccc4[nH]ncc4c3c3c2CCCC3)cc1`, for which the GI50 in assay [1] was 1.61 µM; in assay [2], 3.11 µM; in assay [3] it was 1.71 µM; in assay [4], 2.74 µM; in assay [5] it was 0.905 µM; in [6] it was 1.61 µM. Moreover, the GI50 in assay [7] is 0.969 µM; in assay [8], 0.558 µM; in assay [9] it was 0.741 µM; in assay [10], 2.52 µM. The TGI is 5.62 µM in assay [1]; above 100 µM in assay [2]; 8.01 µM in assay [3]; 18 µM in assay [4]; 5.59 µM in [5]; 43.2 µM in assay [6]. In addition, the TGI in assay [7] is 39.5 µM; in [8], 6.2 µM; in [9], 42.5 µM; in assay [10], 20.4 µM.
Take `CCCCCCCCCCCC[n+]1ccc(C(N)=O)cc1`: the GI50 in assay [1] is 3.29 µM; in assay [2], 2.18 µM; in [3], 2.36 µM; in [4], 2.59 µM; in assay [5], 4.18 µM; in [6], 2.55 µM. For the same compound, the GI50 was 2.84 µM in [7], 4.67 µM in assay [8], 1.43 µM in assay [9] and 3.7 µM in [10]. Further, the TGI is above 100 µM in [1]; 13.1 µM in assay [2]; 6.31 µM in assay [3]; 8.81 µM in assay [4]; 15.2 µM in [5]; 12.8 µM in assay [6]. Further, the TGI in assay [7] is 10.2 µM; in assay [8], above 100 µM; in assay [9], 3 µM; in assay [10], 15.4 µM.
As to `Oc1c(N=Nc2ccccc2)c2ccccc2c2ccc3ccccc3c12`, the TGI in assay [1] was above 100 µM; in assay [2] it was above 100 µM; in assay [3], 85.2 µM; in assay [4], above 100 µM; in [5], above 100 µM; in [6] it was above 100 µM. Moreover, the TGI in assay [7] was above 100 µM; in assay [8] it was 32.6 µM; in [9] it was above 100 µM; in assay [10] it was above 100 µM.
